Measurements taken from US8344101B2, “Composition for improving brain function and method for improving brain function” (Calpis Co., Ltd., priority 2009, dated 2013).

Tested on: scopolamine-induced amnesia
Assay: Y-shaped maze test of spontaneous alternation behavior in mice with scopolamine-induced amnesia
Type: in vivo
Details: male ddY mice, scopolamine 1 mg/kg s.c. 30 minutes before test
Protocol: Male mice (n=15 to 30) of the ddY strain (approximately 7-week old) were used, and they took food and water ad lib. Test substances used were 150 nmol/kg weight (380 μg/kg weight) and 500 nmol/kg weight (1280 μg/kg weight) of […](SEQ ID NO: 2 ). The test substances were administered to the mice once orally […] the execution of a Y-shaped maze test for evaluation of spontaneous alternation behavior. Further, 30 minutes before the execution of the Y-shaped maze test, 1 mg/kg weight of scopolamine was subcutaneously administered on the backs of the mice in order to induce brain dysfunction (dysmnesia and/or cognitive impairment) in the mice. In the Y-shaped maze test, a Y-shaped maze was used as an experimental device, in which the length of each arm was 40 cm, the height of the wall was 12 cm, the width of the floor was 3 cm, and the width of the upper part was 10 cm, and three arms were connected to each other at an angle of 120 degrees. Each of the mice was placed at the tip of any one of the arms of the Y-shaped maze, and then let go to freely explore in the maze for 8 minutes. The sequence of the arms each of the mice entered was recorded. The number of entries by each of the mice for each of the anus during the measurement time was counted to be the total number of entries. In the sequence, the combination in which three different arms were selected in succession (for example, with the three arms respectively called A, B, and C, if the sequence of the arms entered is ABCBACACB, the count is 4 inclusive of overlapping) was investigated, and the number of the count was used as the number of spontaneous alternation behavior. The percentage of spontaneous alternation behavior was calculated by dividing the number of spontaneous alternation behavior by a number obtained by subtracting 2 from the total number of entries, and multiplying a resultant number by 100. The percentage of spontaneous alternation behavior was used as an indicator. […] The measured values were expressed in the form of mean ±standard error for each group. A significant difference between the control group and the scopolamine control group was calculated using Student's t-test. Further, a significant difference between the scopolamine control group and the […] (SEQ ID NO: 2 )-administered group was calculated using Student's t-test.
Male mice (n=15 to 30) of the ddY strain (approximately 7-week old) were used, and they took food and water ad lib. Test substances used here were: 500 nmol/kg weight (1280 μg/kg weight) of […](SEQ ID NO: 2 ); 500 nmol/kg weight (1140 μg/kg weight) of […](SEQ ID NO: 1 ) ([…]); 500 nmol/kg weight (1400 μg/kg weight) of […]([…]) (SEQ ID NO: 3 ); and 500 nmol/kg weight (1150 μg/kg weight) of Ser-Trp-Met-His-Gln-Pro-His-Gln-Pro-Leu-Pro-Pro-Thr-Val-Met-Phe-Pro-Pro-Gln (SWMHQPHQPLPPTVMFPPQ) (SEQ ID NO: 5). The test substances were administered to the mice once orally 60 minutes before the execution of a Y-shaped maze test for evaluation of spontaneous alternation behavior. Further, 30 minutes before the execution of the Y-shaped maze test, 1 mg/kg weight of scopolamine was subcutaneously administered on the backs of the mice in order to induce brain dysfunction (dysmnesia and/or cognitive impairment) in the mice. […] The arms each of the mice entered were sequentially recorded. The number of entries by each of the mice for each of the arms during the measurement time was counted to be the total number of entries. […]

[1] = Example 2, single oral dose 500 nmol/kg weight 60 minutes before Y-shaped maze test, FIG. 2

Row | Sequence | prophylactic activity against amnesia (percentage of spontaneous alternation behavior) (Example 1, single oral dose ranging from 150 nmol/kg weight to 500 nmol/kg weight (380 to 1280 μg/kg weight), given 60 before Y-shaped maze test, FIG. 1) | prophylactic activity against amnesia (percentage of spontaneous alternation behavior) [1]
1 | SWMHQPHQPLPPTVMFPPQSVL (Synthetic functional peptide) | had a prophylactic activity against amnesia | had a prophylactic activity against amnesia
2 | MHQPHQPLPPTVMFPPQSVL (Synthetic functional peptide) |  | had a prophylactic activity against amnesia
3 | SWMHQPHQPLPPTVMFPPQ (Synthetic comparative example peptide) [Ser-Trp-Met-His-Gln-Pro-His-Gln-Pro-Leu-Pro-Pro-Thr-Val-Met-Phe-Pro-Pro-Gln, C-terminally truncated related peptide tested for comparison] |  | did not show any activity
4 | LQSWMHQPHQPLPPTVMFPPQSVL (Synthetic functional peptide) |  | had a prophylactic activity against amnesia
